From patent US10711007B2, “Selective inhibitors of protein arginine methyltransferase 5 (PRMT5)” (Prelude Therapeutics, Incorporated, priority 2018, dated 2020)

Assays:
PRMT5/MEP50 complex = PRMT5/MEP50 complex (Homo sapiens (Human), UniProt O14744); test: Biochemical assay: PRMT5/MEP50 methylation of histone H4 based AcH4-23, SPA readout; conditions: PRMT5/MEP50 2.5 nM, 300 nM AcH4-23, 1 μM 3H-SAM
Method: Biochemical Assay Protocol
Compounds were solubilized and 3-fold diluted in 100% DMSO. […] Standard reactions were performed in a total volume of 30 μl in assay buffer, with 300 nM histone H4 based AcH4-23 (Anaspec: AS-65002) as substrate. To this was added the PRMT5/MEP50 complex diluted to provide a final assay concentration of 2.5 nM and the compounds were allowed to preincubate for 20 minutes at 37° C. The reaction was initiated by adding S-[3H-methyl]-adenosyl-L-methionine (PerkinElmer: NET155001MC) to final concentration of 1 μM. Following a 30 minutes incubation at 37° C., the reaction was stopped by adding 25 μL of 8M Guanidine HCl. Prepare streptavidin YSI SPA beads (Perkinelmer: RPNQ0012) at 0.3 mg/mL in assay buffer. To each reaction, add 150 μL of SPA beads suspension, and incubated while shaking at room temperature for 30 minutes. The plate was centrifuged at 100×g for 30 second before reading in a scintillation counter. IC50 values were determined by fitting the data to the standard 4 parameters with Hill Slope using GraphPad Prism software.

[1] = tested on: sDMA marks (SmD3me2s) in Granta-519 cells; test: Western blotting for symmetric di-methyl arginine (sDMA) marks in Granta-519 cells; format: cell-based; conditions: Homo sapiens, 72 h; Granta-519 cell line (value in brackets), 3 days
Method: (§1) Cell Treatment and Western Blotting for Detecting Symmetric Di-Methyl Arginine (sDMA) Marks
(§2) Compound Titration and Cell Culture:
(§3) Compounds were dissolved in DMSO to make 10 mM stock and 3-fold series dilutions were further conducted to make working stocks top at 1 mM. Granta-519 cells were maintained in PRMI 1640 (Corning Cellgro, Catalog #: 10-040-CV) supplemented with 10% v/v FBS (GE Healthcare, Catalog #: SH30910.03) and U-87 MG cells were maintained in DMEM (Corning Cellgro, Catalog #: 10-013-CV) with 10% FBS and 2 mM Glutamin (Corning Cellgro, Catalog #25005CV).
To determine enzyme inhibition IC50 values in Granta-519 and U-87 MG cells using Western Blot analysis. One day before experiment, Granta-519 cells were passaged to a density of 0.5×10^6 cells/ml. U-87 MG cells were trypsinized and 4×10^5 cells were seeded into 6-well plates and allow to grow overnight. […]
Cells were harvested 3 days later, resuspended in 15 uL PBS, lysed in 4% SDS, and homogenized by passing through homogenizer column (Omega Biotek, Catalog #: HCR003). Total protein concentrations were determined by BCA assay (ThermoFisher Scientific, Catalog #: 23225). […] SmD3me2s bands were quantified by ImageJ. […] IC50 values were calculated using Graphpad Prism ([Inhibitor] vs. normalized response-Variable slope).

[2] = tested on: sDMA marks (SmD3me2s) in U-87 MG cells; test: Western blotting for symmetric di-methyl arginine (sDMA) marks in U-87 MG cells; format: cell-based; conditions: Homo sapiens, 72 h; U-87 MG cell line, 3 days
Method: as §1, §2, §3
To determine enzyme inhibition IC50 values in Granta-519 and U-87 MG cells using Western Blot analysis. One day before experiment, Granta-519 cells were passaged to a density of 0.5×10^6 cells/ml. U-87 MG cells were trypsinized and 4×10^5 cells were seeded into 6-well plates and allow to grow overnight. The next day, Granta-519 cells were spun down at 1,500 rpm for 4 min, resuspend in fresh medium at 0.5×10^6 cells/ml and 3 mL of culture (1.5×10^6 cells) were seeded into 6 well plate. Eight-point, 3-fold serial dilutions of compound working stocks were added to cells (3 ul, 1:1,000 dilution, DMSO concentration was 0.1%; final top concentration at 1 uM) and incubated for 3 days. Cells incubated with DMSO was used as a vehicle control.
Cells were harvested 3 days later, resuspended in 15 uL PBS, lysed in 4% SDS, and homogenized by passing through homogenizer column (Omega Biotek, Catalog #: HCR003). Total protein concentrations were determined by BCA assay (ThermoFisher Scientific, Catalog #: 23225). Lysates were mixed with 5× Laemmli buffer and boiled for 5 min. Forty ug of total protein was separated on SDS-PAGE gels (Bio-Rad, catalog #: 4568083, 4568043), transferred to PVDF membrane, blocked with 5% dry milk (Bio-Rad, Catalog #: 1706404) in TBS with 0.1% v/v Tween 20 (TBST) for 1 hour at room temperature (RT), and incubated with primary antibodies (sDMA: Cell signaling, Catalog #: 13222, 1:3,000; β-Actin: sigma, Catalog #: 1:5,000) in 5% dry milk in TBST at 4° C. overnight. The next day, membranes were washed with TBST, 5×5 min, and incubated with HRP conjugated seconded antibody (GE Healthcare; Catalog #: NA934-1ML, NA931-1ML; 1:5,000) for 2 hours at RT, followed by 5×5 min washes with TBST, and incubation with ECL substrates (Bio-Rad, Catalog #: 1705061, 1705062). Chemiluminescent signal was captured with Fluochem HD2 imager (Proteinsimple). SmD3me2s bands were quantified by ImageJ. Signals were normalized to β-Actin and DMSO control. IC50 values were calculated using Graphpad Prism ([Inhibitor] vs. normalized response-Variable slope).

U-87 MG cells = test: Cell proliferation assay (CCK-8, day 10) in U-87 MG cells; format: cell-based; conditions: Homo sapiens, 240 h, U-87 MG cell line, read-out: Prolif. IC50
Method: Cell Proliferation Assay to Determine IC50 in Granta-519 and U-87 MG Cells
One day before experiment, Granta-519 cells were passaged to a density of 0.5×10^6 cells/ml. U-87 MG cells were trypsinized and 2,000 cells were seeded into 96-well plates and allow to grow overnight. On the day of experiment (day 0), Granta-519 Cells were spun down at 1,500 rpm for 4 min, resuspended in fresh medium to 0.5×10^6 cells/ml and 190 ul of cells were added to 96 well plates. For U-87 MG cells, old medium was removed and replaced with 190 uL fresh medium. Compound working stocks were first diluted at 1:50 with fresh medium in 96 well plate and 10 μL of diluted drugs were added to 96 well plates containing cells and incubated for 3 days. DMSO was used a vehicle control.
One day 3, 50 uL of Granta-519 cells were transferred to a new 96-well plate and 140 uL fresh medium was added. For U-87 MG cells, old medium was removed and replaced with 190 uL fresh medium. Compound working stocks were freshly diluted at 1:50 with medium and 10 μL of diluted drugs were added to cells and grow for 3additional days. The same process was repeated on day 6. Cells were allowed to grow for additional 4 days.
On day 10, 100 uL Granta-519 cells were transferred to a new 96 well plate and 10 μL of Cell Counting Kit-8 (CCK-8, Jojindo, CK04-13) solution was added. For U-87 MG cells, old medium was removed and replaced with 100 uL fresh medium and 10 uL CCK-8 solution was added. Plates were incubated in CO2 incubator for 2 hours (Granta-519 cells) or 30 min (U-87 MG cells) and OD450 values were measured with a microplate reader (iMark microplate reader, Bio-Rad). Percentage of viable cells, relative to DMSO vehicle control, were calculated and plotted in Graphpad Prism ([Inhibitor] vs. normalized response-Variable slope) to determine proliferation IC50 values on day 10.

Sequence of PRMT5/MEP50 complex (O14744 whole entry): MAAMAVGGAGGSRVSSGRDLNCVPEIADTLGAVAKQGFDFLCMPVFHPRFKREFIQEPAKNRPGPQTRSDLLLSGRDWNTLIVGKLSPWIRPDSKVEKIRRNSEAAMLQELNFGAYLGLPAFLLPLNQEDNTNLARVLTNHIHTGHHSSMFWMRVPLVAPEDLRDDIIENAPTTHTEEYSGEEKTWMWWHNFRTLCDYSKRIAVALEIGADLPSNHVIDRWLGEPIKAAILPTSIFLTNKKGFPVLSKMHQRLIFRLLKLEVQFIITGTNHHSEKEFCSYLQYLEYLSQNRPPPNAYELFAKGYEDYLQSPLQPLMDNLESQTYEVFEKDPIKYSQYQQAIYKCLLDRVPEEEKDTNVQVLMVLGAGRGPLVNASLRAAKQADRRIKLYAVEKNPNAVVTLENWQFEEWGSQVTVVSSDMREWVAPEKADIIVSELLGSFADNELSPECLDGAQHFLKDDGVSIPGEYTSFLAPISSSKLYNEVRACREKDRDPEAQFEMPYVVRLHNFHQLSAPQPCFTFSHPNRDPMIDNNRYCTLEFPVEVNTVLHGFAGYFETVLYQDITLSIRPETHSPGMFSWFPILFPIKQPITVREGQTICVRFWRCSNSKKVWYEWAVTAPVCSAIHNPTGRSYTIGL
Sequence of PRMT5/MEP50 complex (Q9BQA1 whole entry partner): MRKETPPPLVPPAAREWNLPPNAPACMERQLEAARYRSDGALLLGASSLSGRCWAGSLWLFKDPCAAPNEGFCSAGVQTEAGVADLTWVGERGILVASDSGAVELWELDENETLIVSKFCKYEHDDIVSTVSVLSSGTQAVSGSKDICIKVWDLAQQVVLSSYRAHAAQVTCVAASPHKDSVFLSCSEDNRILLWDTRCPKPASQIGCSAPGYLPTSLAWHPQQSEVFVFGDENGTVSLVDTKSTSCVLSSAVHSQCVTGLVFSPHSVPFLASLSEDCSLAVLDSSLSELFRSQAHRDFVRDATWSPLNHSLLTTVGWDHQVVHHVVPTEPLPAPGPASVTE

Molecule `Nc1ncnc2c1ccn2[C@@H]1C[C@H]([C@@H]2OC(=O)c3cc(Cl)ccc32)[C@@H](O)[C@H]1O` [Example 3A, (S)-3-((1S,2R,3S,4R)-4-(4-amino-7H-pyrrolo[2,3-d]pyrimidin-7-yl)-2,3-dihydroxycyclopentyl)-6-chloroisobenzofuran-1(3H)-one] has an IC50 (PRMT5/MEP50 complex) of 21 nM and an IC50 [1] of 1620 nM.

`Nc1ncnc2c1ccn2[C@@H]1O[C@H]([C@@H]2OCc3cc(Cl)ccc32)[C@@H](O)[C@H]1O` [Example 1A, (2R,3R,4S,5S)-2-(4-amino-7H-pyrrolo[2,3-d]pyrimidin-7-yl)-5-((R)-5-chloro-1,3-dihydroisobenzofuran-1-yl)tetrahydrofuran-3,4-diol] was tested, and the IC50 (PRMT5/MEP50 complex) was 3.8 nM, the IC50 [2] was 120 nM and the IC50 [1] was 27 nM. It also gave an IC50 (U-87 MG cells) of 142 nM.

For `Cc1ncnc2c1ccn2[C@@H]1O[C@H]([C@@H]2OCCc3ccc(Cl)cc32)[C@@H](O)[C@H]1O` [Example 70, (2S,3S,4R,5R)-2-((R)-7-chloroisochroman-1-yl)-5-(4-methyl-7H-pyrrolo[2,3-d]pyrimidin-7-yl)tetrahydrofuran-3,4-diol], the IC50 (PRMT5/MEP50 complex) was 303 nM, the IC50 [2] was 382 nM and the IC50 (U-87 MG cells) was 458 nM.

Work on `Cc1ncnc2c1ccn2[C@@H]1O[C@H]([C@@H]2OCCc3cc(Cl)sc32)[C@@H](O)[C@H]1O` [Example 89, (2S,3S,4R,5R)-2-((S)-2-chloro-4,7-dihydro-5H-thieno[2,3-c]pyran-7-yl)-5-(4-methyl-7H-pyrrolo[2,3-d]pyrimidin-7-yl)tetrahydrofuran-3,4-diol] yielded an IC50 (PRMT5/MEP50 complex) of 15.7 nM, an IC50 [2] of 84.4 nM and an IC50 (U-87 MG cells) of 179 nM.

Molecule `Nc1ncnc2c1ccn2[C@@H]1O[C@H]([C@@H]2OC[C@H](F)c3cc(Cl)ccc32)[C@@H](O)[C@H]1O` [Example 95, (2R,3R,4S,5S)-2-(4-amino-7H-pyrrolo[2,3-d]pyrimidin-7-yl)-5-((1R,4R)-6-chloro-4-fluoroisochroman-1-yl)tetrahydrofuran-3,4-diol] has an IC50 (PRMT5/MEP50 complex) of 1.6 nM, an IC50 [2] of 11.1 nM and an IC50 (U-87 MG cells) of 18.5 nM.

With `Cc1ncnc2c1ccn2[C@@H]1O[C@H]([C@@H]2OCCc3cc(Cl)c(Cl)cc32)[C@@H](O)[C@H]1O` [Example 87, (2S,3S,4R,5R)-2-((R)-6,7-dichloroisochroman-1-yl)-5-(4-methyl-7H-pyrrolo[2,3-d]pyrimidin-7-yl)tetrahydrofuran-3,4-diol] the IC50 (PRMT5/MEP50 complex) was 7.7 nM, the IC50 [2] was 120 nM and the IC50 (U-87 MG cells) was 509 nM.

`Nc1ncnc2c1ccn2[C@@H]1O[C@H]([C@@H]2OCCc3cc(Cl)sc32)[C@@H](O)[C@H]1O` [Example 90, (2R,3R,4S,5S)-2-(4-amino-7H-pyrrolo[2,3-d]pyrimidin-7-yl)-5-((S)-2-chloro-4,7-dihydro-5H-thieno[2,3-c]pyran-7-yl)tetrahydrofuran-3,4-diol] gave an IC50 (PRMT5/MEP50 complex) of 2.2 nM, an IC50 [2] of 11.4 nM and an IC50 (U-87 MG cells) of 33.3 nM.

Work on `Cc1ncnc2c1ccn2[C@@H]1O[C@H]([C@@H]2NCCc3cc(Cl)ccc32)[C@@H](O)[C@H]1O` [Example 98, (2R,3S,4R,5R)-2-[(1R)-6-chloro-1,2,3,4-tetrahydroisoquinolin-1-yl]-5-(4-methylpyrrolo[2,3-d]pyrimidin-7-yl)tetrahydrofuran-3,4-diol] yielded an IC50 (PRMT5/MEP50 complex) of 11.9 nM, an IC50 [2] of 579 nM and an IC50 (U-87 MG cells) of 662 nM.

`Cc1ncnc2c1c(F)cn2[C@@H]1O[C@H]([C@@H]2OCCc3cc(Cl)ccc32)[C@@H](O)[C@H]1O` [Example 85, (2S,3S,4R,5R)-2-((R)-6-chloroisochroman-1-yl)-5-(5-fluoro-4-methyl-7H-pyrrolo[2,3-d]pyrimidin-7-yl)tetrahydrofuran-3,4-diol] was tested, and the IC50 (PRMT5/MEP50 complex) was 14.7 nM, the IC50 [2] was 173 nM and the IC50 (U-87 MG cells) was 304 nM.

For `Nc1ncnc2c1ccn2[C@@H]1O[C@H]([C@@H]2OCCc3ccc(Cl)cc32)[C@@H](O)[C@H]1O` [Example 71, (2R,3R,4S,5S)-2-(4-amino-7H-pyrrolo[2,3-d]pyrimidin-7-yl)-5-((R)-7-chloroisochroman-1-yl)tetrahydrofuran-3,4-diol], the IC50 (PRMT5/MEP50 complex) was 6.2 nM, the IC50 [2] was 29.7 nM and the IC50 (U-87 MG cells) was 73 nM.
